Data on seven compounds can be found in patent US12018059B2, “Human amylin analog polypeptides and methods of use” (Intarcia Therapeutics, Inc., priority 2018, dated 2024).

The nature of the series: in vivo. Set-up: species or system Sprague-Dawley rats. To be noted: rat, iv, 0.033 mg/kg. The method, boiled down:
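Male Sprague-Dawley rats, non-fasted (n=3), given peptide in saline as 1-h IV or SC infusion at 0.033 mg/kg, or SC bolus at 0.3 mg/kg; jugular blood to 48 h into K2EDTA plus protease inhibitors. Plasma extracted by precipitation or WCX solid-phase extraction, quantified by UPLC-MS/MS against standards in matching rat plasma.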

The structures appear in SMILES notation. Starred links: 1 amine or outer side, 2 acyl side, 3 side chain; linkers in the order of their positions; H or OH if unused. Positions of bridges follow the written chain, without caps; N, C: chain ends. Non-standard residues stand in square brackets, D forms with d. Residues, ends and D or L forms follow the SMILES beside them. Groups on a side chain read outwards from the residue. *: point of attachment. X4 = CCCCCCCCCCCCCCCC(=O)N[C@@H](CCC(=O)NCOCCOCC(=O)NCOCCOCC(=O)*)C(=O)O; C20 diacid = O=C(O)CCCCCCCCCCCCCCCCCCC(=O)*; C16 diacid = O=C(O)CCCCCCCCCCCCCCC(=O)*; γGlu = O=C(O)[C@H](CCC(=O)[*:2])N[*:1]; C12 diacid = O=C(O)CCCCCCCCCCC(=O)*; Stearoyl = CCCCCCCCCCCCCCCCCC(=O)*; Palmitoyl = CCCCCCCCCCCCCCCC(=O)*

In the case of `CCCCCCCCCCCCCCCC(=O)N[C@@H](CCC(=O)N[C@@H](CCC(=O)N[C@@H](CCC(=O)NCCCC[C@@H](NC(=O)[C@H](CCC(=O)O)NC(=O)[C@H](CC(N)=O)NC(=O)[C@H](C)NC(=O)[C@H](CC(C)C)NC(=O)[C@H](CCCNC(=N)N)NC(=O)[C@H](CCC(N)=O)NC(=O)[C@@H](NC(=O)[C@H](C)NC(=O)[C@@H]1CSSC[C@H](NC(=O)[C@@H](N)CO)C(=O)N[C@@H](CC(N)=O)C(=O)N[C@@H]([C@@H](C)O)C(=O)N[C@@H](CO)C(=O)N[C@@H]([C@@H](C)O)C(=O)N1)[C@@H](C)O)C(=O)N[C@@H](Cc1c[nH]cn1)C(=O)N[C@@H](CCCCN)C(=O)N[C@@H](CO)C(=O)N[C@@H](CO)C(=O)N[C@@H](CC(N)=O)C(=O)N[C@@H](CC(N)=O)C(=O)N[C@@H](Cc1ccccc1)C(=O)NCC(=O)N1CCC[C@H]1C(=O)N[C@H](C(=O)N[C@@H](CC(C)C)C(=O)N1CCC[C@H]1C(=O)N1CCC[C@H]1C(=O)N[C@H](C(=O)N[C@@H](CCCCN)C(=O)N[C@H](C(=O)NCC(=O)N[C@@H](CO)C(=O)N[C@@H](CCC(=O)O)C(=O)N[C@H](C(=O)N[C@@H](Cc1ccc(O)cc1)C(N)=O)[C@@H](C)O)C(C)C)[C@@H](C)O)[C@@H](C)CC)C(=O)O)C(=O)O)C(=O)O` [Compound A53] (H-SCNTSTCATQRLANE[dK]([γGlu-γGlu-γGlu-Palmitoyl])HKSSNNFGPILPPTKVGSETY-NH2; disulfide 2-7), the Vd was 0.174 L/kg, the clearance came to 0.478 mL/min/kg and the half-life was 5.16 h.

Take `CCCCCCCCCCCCCCCCCC(=O)N[C@@H](CCC(=O)N[C@@H](CCC(=O)NCCCC[C@@H](NC(=O)[C@H](CCC(=O)O)NC(=O)[C@H](CC(N)=O)NC(=O)[C@H](C)NC(=O)[C@H](CC(C)C)NC(=O)[C@H](CCCNC(=N)N)NC(=O)[C@H](CCC(N)=O)NC(=O)[C@@H](NC(=O)[C@H](C)NC(=O)[C@@H]1CSSC[C@H](NC(=O)[C@@H](N)CO)C(=O)N[C@@H](CC(N)=O)C(=O)N[C@@H]([C@@H](C)O)C(=O)N[C@@H](CO)C(=O)N[C@@H]([C@@H](C)O)C(=O)N1)[C@@H](C)O)C(=O)N[C@@H](Cc1c[nH]cn1)C(=O)N[C@@H](CCCCN)C(=O)N[C@@H](CO)C(=O)N[C@@H](CO)C(=O)N[C@@H](CC(N)=O)C(=O)N[C@@H](CC(N)=O)C(=O)N[C@@H](Cc1ccccc1)C(=O)NCC(=O)N1CCC[C@H]1C(=O)N[C@H](C(=O)N[C@@H](CC(C)C)C(=O)N1CCC[C@H]1C(=O)N1CCC[C@H]1C(=O)N[C@H](C(=O)N[C@@H](CCCCN)C(=O)N[C@H](C(=O)NCC(=O)N[C@@H](CO)C(=O)N[C@@H](CCC(=O)O)C(=O)N[C@H](C(=O)N[C@@H](Cc1ccc(O)cc1)C(N)=O)[C@@H](C)O)C(C)C)[C@@H](C)O)[C@@H](C)CC)C(=O)O)C(=O)O` [Compound A56] (H-SCNTSTCATQRLANE[dK]([γGlu-γGlu-Stearoyl])HKSSNNFGPILPPTKVGSETY-NH2; disulfide 2-7): the Vd came to 0.469 L/kg, the clearance worked out at 1.34 mL/min/kg and the half-life is 4.29 h.

As to `CCCCCCCCCCCCCCCC(=O)N[C@@H](CCC(=O)NCOCCOCC(=O)NCOCCOCC(=O)N[C@@H](CCC(=O)NCCCC[C@H](NC(=O)[C@H](CCC(=O)O)NC(=O)[C@H](CC(N)=O)NC(=O)[C@H](C)NC(=O)[C@H](CC(C)C)NC(=O)[C@H](CCCNC(=N)N)NC(=O)[C@H](CCC(N)=O)NC(=O)[C@@H](NC(=O)[C@H](C)NC(=O)[C@@H]1CSSC[C@H](NC(=O)[C@@H](N)CO)C(=O)N[C@@H](CC(N)=O)C(=O)N[C@@H]([C@@H](C)O)C(=O)N[C@@H](CO)C(=O)N[C@@H]([C@@H](C)O)C(=O)N1)[C@@H](C)O)C(=O)N[C@@H](Cc1c[nH]cn1)C(=O)N[C@@H](CCCCN)C(=O)N[C@@H](CO)C(=O)N[C@@H](CO)C(=O)N[C@@H](CC(N)=O)C(=O)N[C@@H](CC(N)=O)C(=O)N[C@@H](Cc1ccccc1)C(=O)NCC(=O)N1CCC[C@H]1C(=O)N[C@H](C(=O)N[C@@H](CC(C)C)C(=O)N1CCC[C@H]1C(=O)N1CCC[C@H]1C(=O)N[C@H](C(=O)N[C@@H](CCCCN)C(=O)N[C@H](C(=O)NCC(=O)N[C@@H](CO)C(=O)N[C@@H](CCC(=O)O)C(=O)N[C@H](C(=O)N[C@@H](Cc1ccc(O)cc1)C(N)=O)[C@@H](C)O)C(C)C)[C@@H](C)O)[C@@H](C)CC)C(=O)O)C(=O)O` [Compound A63] (H-SCNTSTCATQRLANEK([γGlu-X4])HKSSNNFGPILPPTKVGSETY-NH2; disulfide 2-7; N-terminus assumed), the volume of distribution (Vd) came to 0.54 L/kg, the clearance was 2.66 mL/min/kg and the half-life is 2.81 h.

The compound `CCCCCCCCCCCCCCCC(=O)N[C@@H](CCC(=O)N[C@@H](CCC(=O)NCCCC[C@@H](NC(=O)[C@H](Cc1ccccc1)NC(=O)[C@H](CC(N)=O)NC(=O)[C@H](C)NC(=O)[C@H](CC(C)C)NC(=O)[C@H](CCCNC(=N)N)NC(=O)[C@H](CCC(N)=O)NC(=O)[C@@H](NC(=O)[C@H](C)NC(=O)[C@@H]1CSSC[C@H](NC(=O)[C@@H](N)CO)C(=O)N[C@@H](CC(N)=O)C(=O)N[C@@H]([C@@H](C)O)C(=O)N[C@@H](CO)C(=O)N[C@@H]([C@@H](C)O)C(=O)N1)[C@@H](C)O)C(=O)N[C@@H](Cc1c[nH]cn1)C(=O)N[C@@H](CCCCN)C(=O)N[C@@H](CO)C(=O)N[C@@H](CO)C(=O)N[C@@H](CC(N)=O)C(=O)N[C@@H](CC(N)=O)C(=O)N[C@@H](Cc1ccccc1)C(=O)NCC(=O)N1CCC[C@H]1C(=O)N[C@H](C(=O)N[C@@H](CC(C)C)C(=O)N1CCC[C@H]1C(=O)N1CCC[C@H]1C(=O)N[C@H](C(=O)N[C@@H](CCCCN)C(=O)N[C@H](C(=O)NCC(=O)N[C@@H](CO)C(=O)N[C@@H](CCC(=O)O)C(=O)N[C@H](C(=O)N[C@@H](Cc1ccc(O)cc1)C(N)=O)[C@@H](C)O)C(C)C)[C@@H](C)O)[C@@H](C)CC)C(=O)O)C(=O)O` [Compound A70] (H-SCNTSTCATQRLANF[dK]([γGlu-γGlu-Palmitoyl])HKSSNNFGPILPPTKVGSETY-NH2; disulfide 2-7) had a volume of distribution (Vd) of 0.187 L/kg, a clearance of 3.08 mL/min/kg and a half-life of 0.752 h.

`CC[C@H](C)[C@H](NC(=O)[C@@H]1CCCN1C(=O)CNC(=O)[C@H](Cc1ccccc1)NC(=O)[C@H](CC(N)=O)NC(=O)[C@H](CC(N)=O)NC(=O)[C@H](CO)NC(=O)[C@H](CO)NC(=O)[C@H](CCCCN)NC(=O)[C@H](Cc1c[nH]cn1)NC(=O)[C@H](CC(C)C)NC(=O)[C@H](CCCCNC(=O)CCCCCCCCCCCCCCC(=O)O)NC(=O)[C@H](CC(N)=O)NC(=O)[C@H](C)NC(=O)[C@H](CC(C)C)NC(=O)[C@H](CCCNC(=N)N)NC(=O)[C@H](CCC(N)=O)NC(=O)[C@@H](NC(=O)[C@H](C)NC(=O)[C@@H]1CSSC[C@H](NC(=O)[C@@H](N)CO)C(=O)N[C@@H](CC(N)=O)C(=O)N[C@@H]([C@@H](C)O)C(=O)N[C@@H](CO)C(=O)N[C@@H]([C@@H](C)O)C(=O)N1)[C@@H](C)O)C(=O)N[C@@H](CC(C)C)C(=O)N1CCC[C@H]1C(=O)N1CCC[C@H]1C(=O)N[C@H](C(=O)N[C@@H](CCCCN)C(=O)N[C@H](C(=O)NCC(=O)N[C@@H](CO)C(=O)N[C@@H](CCC(=O)O)C(=O)N[C@H](C(=O)N[C@@H](Cc1ccc(O)cc1)C(N)=O)[C@@H](C)O)C(C)C)[C@@H](C)O` [Compound A72] (H-SCNTSTCATQRLANK(C16 diacid)LHKSSNNFGPILPPTKVGSETY-NH2; disulfide 2-7) showed a Vd of 0.172 L/kg, a clearance of 1.54 mL/min/kg and a half-life of 3.44 h.

`CC[C@H](C)[C@H](NC(=O)[C@@H]1CCCN1C(=O)CNC(=O)[C@H](Cc1ccccc1)NC(=O)[C@H](CC(N)=O)NC(=O)[C@H](CC(N)=O)NC(=O)[C@H](CO)NC(=O)[C@H](CO)NC(=O)[C@H](CCCCN)NC(=O)[C@H](Cc1c[nH]cn1)NC(=O)[C@H](CCCCNC(=O)CC[C@H](NC(=O)CCCCCCCCCCCCCCCCCCC(=O)O)C(=O)O)NC(=O)[C@H](CCC(=O)O)NC(=O)[C@H](CC(N)=O)NC(=O)[C@H](C)NC(=O)[C@H](CC(C)C)NC(=O)[C@H](CCCNC(=N)N)NC(=O)[C@H](CCC(N)=O)NC(=O)[C@@H](NC(=O)[C@H](C)NC(=O)[C@@H]1CSSC[C@H](NC(=O)[C@@H](N)CO)C(=O)N[C@@H](CC(N)=O)C(=O)N[C@@H]([C@@H](C)O)C(=O)N[C@@H](CO)C(=O)N[C@@H]([C@@H](C)O)C(=O)N1)[C@@H](C)O)C(=O)N[C@@H](CC(C)C)C(=O)N1CCC[C@H]1C(=O)N1CCC[C@H]1C(=O)N[C@H](C(=O)N[C@@H](CCCCN)C(=O)N[C@H](C(=O)NCC(=O)N[C@@H](CO)C(=O)N[C@@H](CCC(=O)O)C(=O)N[C@H](C(=O)N[C@@H](Cc1ccc(O)cc1)C(N)=O)[C@@H](C)O)C(C)C)[C@@H](C)O` [Compound A73] (H-SCNTSTCATQRLANEK([γGlu-C20 diacid])HKSSNNFGPILPPTKVGSETY-NH2; disulfide 2-7; N-terminus assumed): under “male, Sprague-Dawley”, the Vd amounted to 0.0924 L/kg, the clearance stood at 0.0449 mL/min/kg and the half-life was 26.6 h.

Turning to `CC[C@H](C)[C@H](NC(=O)[C@@H]1CCCN1C(=O)CNC(=O)[C@H](Cc1ccccc1)NC(=O)[C@H](CC(N)=O)NC(=O)[C@H](CC(N)=O)NC(=O)[C@H](CO)NC(=O)[C@H](CO)NC(=O)[C@H](CCCCN)NC(=O)[C@H](Cc1c[nH]cn1)NC(=O)[C@H](CCCCNC(=O)CCCCCCCCCCC(=O)O)NC(=O)[C@H](CCC(=O)O)NC(=O)[C@H](CC(N)=O)NC(=O)[C@H](C)NC(=O)[C@H](CC(C)C)NC(=O)[C@H](CCCNC(=N)N)NC(=O)[C@H](CCC(N)=O)NC(=O)[C@@H](NC(=O)[C@H](C)NC(=O)[C@@H]1CSSC[C@H](NC(=O)[C@@H](N)CO)C(=O)N[C@@H](CC(N)=O)C(=O)N[C@@H]([C@@H](C)O)C(=O)N[C@@H](CO)C(=O)N[C@@H]([C@@H](C)O)C(=O)N1)[C@@H](C)O)C(=O)N[C@@H](CC(C)C)C(=O)N1CCC[C@H]1C(=O)N1CCC[C@H]1C(=O)N[C@H](C(=O)N[C@@H](CCCCN)C(=O)N[C@H](C(=O)NCC(=O)N[C@@H](CO)C(=O)N[C@@H](CCC(=O)O)C(=O)N[C@H](C(=O)N[C@@H](Cc1ccc(O)cc1)C(N)=O)[C@@H](C)O)C(C)C)[C@@H](C)O` [Compound A74] (H-SCNTSTCATQRLANEK(C12 diacid)HKSSNNFGPILPPTKVGSETY-NH2; disulfide 2-7), the Vd turned out to be 0.331 L/kg, the clearance was 12.2 mL/min/kg and the half-life is 0.331 h.

The term Vd denotes the apparent volume that relates the amount in the body to the concentration in plasma or blood. As a reminder, the clearance is a measure of how efficiently the substance is removed, as volume per time. Low readings indicate a low capacity for elimination, high ones a high capacity for elimination. As usually defined, the half-life is how long it takes for the measured level to halve. High values mean slow loss, low ones fast loss.
